Results reported in US10744188B2, “High osteocalcin microcrystalline hydroxyapatite for calcium supplement” (Waitaki Biosciences, priority 2013, dated 2020).
“Also recorded” adds a separate entry of the source. Structures can show the parent of a compound that is named as a salt.

Experiments:
[1] = blood ionized calcium concentration after ingestion of calcium supplement (clinical tests, FIG. 1)
Description: For some time microcrystalline hydroxyapatite (MCHA) manufactured from animal bones has been used as a slightly unconventional calcium supplement. Considering that bone mineral is largely calcium phosphate in the form of hydroxyapatite, it seems logical to use MCHA as a source of bone calcium. However, there can be some difficulty in purifying MCHA from native bones because there is considerable excess protein and lipid that must be removed to provide a stable as well as readily digestible product. As might be imagined there is considerable variation in the process parameters for making an MCHA product. In a study intended to compare MCHA to conventional calcium supplements, the inventors analyzed MCHA produced using varied protocols. They were surprised to discover that depending on how the MCHA is manufactured, its rate of bioabsorption changes quite dramatically. After considerable experimentation, the inventors developed the current product which was then compared to calcium carbonate and calcium citrate in both an absorption (measured by blood calcium concentration) and a bone mineralization/density study.
However, it must be kept in mind that the blood calcium concentration is maintained by withdrawing calcium from the bones if the dietary supply is insufficient.
In FIG. 1 the blood levels of ionized calcium of two different MHCA preparations (see below for preparation details) are compared to blood calcium levels provided by other calcium supplements.

[2] = 90 day study of bone calcium level and markers of bone mineralization and turnover; type: in vivo; conditions: 90 day experimental duration

duration of spiking of blood calcium concentration ([1]; human, in vivo) | Compound | duration of spiking of blood calcium concentration ([1]; after ingestion) | blood ionized calcium level after ingestion ([1]; compared with calcium-free placebo/control) | bone calcium level and other markers of bone mineralization and turnover, compared with calcium-free placebo [2] | bone calcium level and other markers of bone mineralization and turnover, supplements compared with each other [2] | blood ionized calcium level after ingestion ([1]; human, in vivo) | blood ionized calcium level after ingestion ([1]; in vivo)
– | O=C([O-])[O-].[Ca+2] [calcium carbonate] | ca. 8 hour | spike above the normal 1 mM concentration; also recorded: rapid increase in ionized blood calcium | statistically significantly different from the calcium-free placebo | not statistically significantly different from each other | – | –
ca. 8 hour | O=C(O)CC(O)(CC(=O)O)C(=O)O [calcium citrate] | – | – | statistically significantly different from the calcium-free placebo | not statistically significantly different from each other | spike above the normal 1 mM concentration | rapid increase in ionized blood calcium
– | microcrystalline hydroxyapatite [MCHA] | – | – | – | – | – | not statistically significantly different from the calcium-free placebo
